According to patent publication US5567605A, “Assay for D-allose using a NAD cofactor coupled D-allose dehydrogenase” (UOP, priority 1994, dated 1996):
“And” between values parts separate entries of the source, which are not always exact repeats. Equal values may be shown once.

Experiments:
[1] = tested on: D-allose dehydrogenase; assay: Visual qualitative D-allose assay with electron accepting dyes; format: biochemical, Exophiala pisciphila; conditions: phenozine methosulfate and nitro blue tetrazolium, phosphate buffer pH 8.0
Source text: The assay can be coupled with electron accepting dyes to form a visual qualitative D-allose assay. […] Control samples without D-allose remain light pink. The nature of the electron-accepting dye is not critical to the success of this qualitative assay; electron-accepting dyes are well known in the biochemical arts and are merely exemplified by the class of tetrazolium salts, one of which is nitro blue tetrazolium.
The visual D-allose assay contained: […]

[2] = tested on: D-allose dehydrogenase; assay: NAD cofactor coupled D-allose dehydrogenase spectrophotometric enzyme assay (340 nm); format: biochemical, Exophiala pisciphila; conditions: for Activity (carbohydrate specificity): Sugar 100 mM as substrate, pH 9.0, 30° C., same dose of enzyme extract
Protocol: Soil and water samples were obtained from several sites and incubated with D-allose in a basic salts solution. The bacterial and fungal cultures were grown aerobically at 30° C. in a rotary incubator at 250 rpm. The basic salts growth medium contained: Na2 HPO4, 16 raM; KH2 PO4, 34 mM; (NH4)2 SO4, 15 mM; MgSO4, 1 mM; CaCl2, 0.1 mM; FeSO4, 0.01 mM and D-allose, 10 mM. The pH of the medium was 6.5. After growth in liquid, as determined by an increase in optical density, the cultures were streaked out on solid agar media containing D-allose as the growth substrate. […] After growth on D-allose, the individual cultures were harvested by centrifugation and the cells disrupted using a sonicator. Cell debris was removed by centrifugation and the crude cell extract was assayed for D-allose dehydrogenase enzymatic activity.
The enzyme assay was performed with a Beckman DU70 recording spectrophotometer using 340 nanometer wavelength light with 20 sec. interval readings for a 10 minute time period. Assays were run in 1 ml cuvettes at a constant temperature of 30° C. The instantaneous reaction rate was measured as the change in optical density per minute; activity was calculated at early reaction times when the changes in optical density were linear with time. The rate of enzyme reaction is directly proportional to the appearance of reduced NAD at 340 nm, because the enzyme oxidizes D-allose and transfers two protons from D-allose to NAD. The extinction coefficient of NADH2 (6.23 OD/1 mM solution) was used to convert the change in optical density per minute to micromoles of product. A standard curve of reaction rate versus substrate concentration was used to determine the D-allose concentration in unknown samples (FIG. 1). The Km of an enzyme is the concentration of substrate that gives one half maximal reaction rate and is thus a measure of the affinity of the enzyme for this substrate. The Vmax of an enzyme is the maximum rate of reaction that can be obtained where the substrate concentration is fully saturating the enzyme. […] An internal standard control using a 20 mM addition of D-allose to a duplicate unknown sample was used to determine if the sample interfered with D-allose measurement. If interference was detected, the unknown sample D-allose concentration was corrected for by the percent interference measured in the internal control sample.
The spectrophotometric enzyme reactions were performed in a 1 mL cuvette that contained the following. […]
The results of Table 1 were obtained at 30° C. using a solution containing 100 mM in D-allose.
In this series, a constant amount of enzyme extract was added to D-allose at various concentrations with the results summarized in Table 2.
In these experiments 1 mL of a 100 mM solution of various sugars were treated at pH 9.0 and 30° C. with the same dose of enzyme extract.

[3] = animals and humans; cited from earlier work

O=C[C@H](O)[C@H](O)[C@H](O)[C@H](O)CO [D-allose]
visual color change [1]: color change from light pink to dark blue
Km ([2]; 30° C., pH 9.0 glycine-NaOH, NAD 5 mM, read-out: apparent Km for the enzyme with D-allose as substrate): 77 mM
Activity ([2]; Buffer 0.2 molar, initial pH 9.0, final pH 8.5, 100 mM D-allose, 30° C.): 2.35 µmol/min/mL
Activity ([2]; Buffer 0.5 molar, initial pH 9.0, final pH 8.9, 100 mM D-allose, 30° C.): 2.56 µmol/min/mL
Activity ([2]; Buffer 1.0 molar, initial pH 9.0, final pH 9.0, 100 mM D-allose, 30° C.): 2.75 µmol/min/mL
Activity ([2]; Buffer 2.0 molar, initial pH 9.0, final pH 9.0, 100 mM D-allose, 30° C.): 3.13 µmol/min/mL
Activity ([2]; D-allose 1 mM, constant amount of enzyme extract): 0.13 μmole/min/ml of extract
% Inhibition ([2]; D-allose 10 mM in 20% human serum): 16%
Activity ([2]; D-allose 10 mM, constant amount of enzyme extract): 0.80 μmole/min/ml of extract
Activity ([2]; D-allose 100 mM, constant amount of enzyme extract): 3.07 μmole/min/ml of extract
Activity ([2]; Enzyme Extract 20 μL, 100 mM D-allose, 30° C.): 0.09 µmol/min
Activity ([2]; Enzyme Extract 50 μL, 100 mM D-allose, 30° C.): 0.15 µmol/min
Activity ([2]; Enzyme Extract 100 μL, 100 mM D-allose, 30° C.): 0.26 µmol/min
Activity (carbohydrate specificity) [2]: 2.93 µmol/min/mL
Activity ([2]; pH of assay buffer 8.0, 100 mM D-allose, 30° C.): < 0.05 µmol/min/mL
Activity ([2]; pH of assay buffer 8.5, 100 mM D-allose, 30° C.): 0.78 µmol/min/mL
Activity ([2]; pH of assay buffer 9.0, 100 mM D-allose, 30° C.): 2.38 µmol/min/mL and 2.31 µmol/min/mL
Activity ([2]; pH of assay buffer 9.5, 100 mM D-allose, 30° C.): 0.10 µmol/min/mL
Activity ([2]; pH of assay buffer 10.0, 100 mM D-allose, 30° C.): < 0.05 µmol/min/mL
excretion [3]: easily excreted
metabolism [3]: not readily metabolized

O=C[C@H](O)[C@@H](O)[C@H](O)[C@H](O)CO [D-glucose, reference compound]
Activity (carbohydrate specificity) [2]: < 0.07 µmol/min/mL

O=C[C@@H](O)[C@@H](O)[C@H](O)[C@H](O)CO [D-mannose, reference compound]
Activity (carbohydrate specificity) [2]: < 0.07 µmol/min/mL

O=C[C@@H](O)[C@H](O)[C@H](O)[C@H](O)CO [D-altrose, reference compound]
Activity (carbohydrate specificity) [2]: < 0.07 µmol/min/mL

O=C[C@H](O)[C@H](O)[C@H](O)CO [D-ribose, reference compound]
Activity (carbohydrate specificity) [2]: < 0.07 µmol/min/mL
